One assay deals with AGS (G12D). Put plainly: Cell proliferation assay (CellTiter-Glo, 72 hours), AGS. It is filed as cell-based. As to conditions: 384-well, CellTiter-Glo 2.0. The method, then: (§1) Two thousand KRAS mutant cells per well were seeded in 384-well white plate and then treated with indicated compounds for 72 hours at 37° C. and 5% CO2. Cell proliferation was measured using CellTiter-Glo 2.0 luciferase-based ATP detection assay (Promega, Madison, WI) following the manufacturer's protocol. IC50 values were determined using Prism software (GraphPad Software, San Diego, CA).

In a further assay the target is KRAS G12D (Homo sapiens, UniProt P01116, G12D). The experiment in a line: biochemical.
Sequence of KRAS G12D (P01116 1-188 isoform P01116-2 G12D): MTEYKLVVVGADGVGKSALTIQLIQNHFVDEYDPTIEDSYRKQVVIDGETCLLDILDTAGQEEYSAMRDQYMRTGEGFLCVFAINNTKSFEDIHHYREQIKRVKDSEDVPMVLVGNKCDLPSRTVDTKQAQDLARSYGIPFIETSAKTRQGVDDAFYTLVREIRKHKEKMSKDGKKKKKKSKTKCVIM
The target of the next assay is KRAS G12V (Homo sapiens, UniProt P01116, G12V). Put plainly: biochemical.
Sequence of KRAS G12V (P01116 1-188 isoform P01116-2 G12V): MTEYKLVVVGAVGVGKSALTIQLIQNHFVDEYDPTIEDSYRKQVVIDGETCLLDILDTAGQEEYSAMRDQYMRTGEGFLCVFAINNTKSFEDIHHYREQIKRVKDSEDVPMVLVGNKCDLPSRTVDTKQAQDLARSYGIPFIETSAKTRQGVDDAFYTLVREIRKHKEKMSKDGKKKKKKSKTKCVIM
A further assay deals with SW620 (KRAS G12V). The experiment in a line: Cell proliferation assay (CellTiter-Glo, 72 hours), SW620. Type of assay: cell-based. As to conditions: 384-well, CellTiter-Glo 2.0. How it is done: as §1
The next assay has as its system GP2D (KRAS G12D). Put plainly: Cell proliferation assay (CellTiter-Glo, 72 hours), GP2D. It is filed as cell-based. Particulars: 384-well, CellTiter-Glo 2.0. How it is done: as §1

As for `Fc1c(-c2c(Cl)ccc3[nH]nc(Cl)c23)nc2c3c(nc(OC[C@@]45CCCN4C[C@H](F)C5)nc13)N1CCCC[C@H]1CO2` (atropisomer, axis not shown) [Example 83, (7S)-12-(3,5-dichloro-1H-indazol-4-yl)-13-fluoro-16-[[(2R,8S)-2-fluoro-1,2,3,5,6,6-4hexahydropyrrolizin-8-yl]methoxy]-9-oxa-2,11,15,17-tetrazatetracyclo[8.7.1.02,7.014,18]octadeca-1 (17),10 (18),11,13,15-pentaene], the IC50 in the assay on AGS (G12D) (72 h) was more than 3000 nM; against KRAS G12D, 60.4 nM; on KRAS G12V it was 59.3 nM; in the assay with SW620 (KRAS G12V) (Homo sapiens, SW-620, 72 h) it was more than 3000 nM; in the assay on GP2D (KRAS G12D), 1080 nM.
`Fc1c(-c2c(Cl)ccc3[nH]nc(Cl)c23)nc2c3c(nc(OC[C@@]45CCCN4C[C@H](F)C5)nc13)N1CCCC[C@H]1CO2` (atropisomer, axis not shown) [Example 84, (7S)-12-(3,5-dichloro-1H-indazol-4-yl)-13-fluoro-16-[[(2R,8S)-2-fluoro-1,2,3,5,6,7-hexahydropyrrolizin-8-yl]methoxy]-9-oxa-2,11,15,17-tetrazatetracyclo[8.7.1.02, 7.014,18]octadeca-1 (17),10 (18),11,13,15-pentaene]: the half-inhibitory concentration (IC50) in the assay on AGS (G12D) is more than 3000 nM; against KRAS G12D it was 54.5 nM; against KRAS G12V it was 48 nM; in the assay with SW620 (KRAS G12V), more than 3000 nM; with GP2D (KRAS G12D) it was more than 3000 nM.
As to `Nc1nc2c(-c3nc4c5c(nc(OC[C@@]67CCCN6C[C@H](F)C7)nc5c3F)N3CCCC[C@H]3CO4)ccc(F)c2s1` [Example 40, 7-fluoro-4-[(8aS)-4-fluoro-2-{[(2R,7aS)-2-fluorotetrahydro-1H-pyrrolizin-7a(5H)-yl]methoxy}-8,8a,9,10,11,12-hexahydro-7-oxa-1,3,6,12a-tetraazabenzo[4,5]cyclohepta[1,2,3-de]naphthalen-5-yl]-1,3-benzothiazol-2-amine], the half-inhibitory concentration (IC50) with AGS (G12D) (72 h) was more than 3000 nM; against KRAS G12D it was 30.1 nM; against KRAS G12V it was 28.2 nM; with SW620 (KRAS G12V) (Homo sapiens, SW-620, 72 h), more than 3000 nM; in the assay on GP2D (KRAS G12D) (GP2d, 72 h), more than 3000 nM.
`Cc1cc(N)nc(-c2nc3c4c(nc(OC[C@@]56CCCN5C[C@H](F)C6)nc4c2F)N2CCCC[C@H]2CO3)c1C(F)(F)F` [Example 43, 6-[(8aS)-4-fluoro-2-{[(2R,7aS)-2-fluorotetrahydro-1H-pyrrolizin-7a(5H)-yl]methoxy}-8,8a,9,10,11,12-hexahydro-7-oxa-1,3,6,12a-tetraazabenzo[4,5]cyclohepta[1,2,3-de]naphthalen-5-yl]-4-methyl-5-(trifluoromethyl)pyridin-2-amine]: the IC50 with AGS (G12D) (72 h) is more than 3000 nM; against KRAS G12D it was 16.3 nM; against KRAS G12V it was 12.7 nM; in the assay on SW620 (KRAS G12V) (Homo sapiens, SW-620, 72 h) it was more than 3000 nM; in the assay on GP2D (KRAS G12D) (GP2d, 72 h) it was 2120 nM.
In the case of `C#Cc1c(F)ccc2cc(O)cc(-c3cc4c5c(nc(OC[C@@]67CCCN6C[C@H](F)C7)nc5c3F)N3CCCC[C@H]3CO4)c12` [Example 45, 5-ethynyl-6-fluoro-4-[(8aS)-4-fluoro-2-{[(2R,7aS)-2-fluorotetrahydro-1H-pyrrolizin-7a(5H)-yl]methoxy}-8,8a,9,10,11,12-hexahydropyrido[2′,1′:3,4][1,4]oxazepino[5,6,7-de]quinazolin-5-yl]naphthalen-2-ol], the half-maximal inhibitory concentration (IC50) in the assay on AGS (G12D) (72 h) amounted to 621 nM; against KRAS G12D, 3.28 nM; against KRAS G12V it was 2.33 nM; with SW620 (KRAS G12V) (Homo sapiens, SW-620, 72 h) it was 321 nM; in the assay with GP2D (KRAS G12D) (GP2d, 72 h), 361 nM.
On to `C#Cc1c(F)ccc2cc(O)cc(-c3nc4c5c(nc(OC[C@@]67CCCN6C[C@H](F)C7)nc5c3F)N[C@@H](C)CO4)c12` [Example 46, 5-ethynyl-6-fluoro-4-[(9S)-4-fluoro-2-{[(2R,7aS)-2-fluorotetrahydro-1H-pyrrolizin-7a(5H)-yl]methoxy}-9-methyl-9,10-dihydro-8H-7-oxa-1,3,6,10-tetraazacyclohepta[1,2,3-de]naphthalen-5-yl]naphthalen-2-ol], for which the IC50 in the assay on AGS (G12D) (72 h) was determined as 193 nM; against KRAS G12D, 2.1 nM; against KRAS G12V, 1.71 nM; with SW620 (KRAS G12V) (Homo sapiens, SW-620, 72 h), 414 nM; in the assay on GP2D (KRAS G12D) (GP2d, 72 h) it was 74.8 nM.
In the same order, the values of `C#Cc1c(F)ccc2cc(O)cc(-c3nc4c5c(nc(OC[C@@]67CCCN6C[C@H](F)C7)nc5c3F)N(C)[C@@H](C)CO4)c12` [Example 50, 5-ethynyl-6-fluoro-4-[(9S)-4-fluoro-2-{[(2R,7aS)-2-fluorotetrahydro-1H-pyrrolizin-7a(5H)-yl]methoxy}-9,10-dimethyl-9,10-dihydro-8H-7-oxa-1,3,6,10-tetraazacyclohepta[1,2,3-de]naphthalen-5-yl]naphthalen-2-ol] are 28.4 nM, 1.71 nM, 1.99 nM, 25.7 nM and 8.94 nM.
In the same order, the values of `C#Cc1c(F)ccc2cc(O)cc(-c3nc4c5c(nc(OC[C@@]67CCCN6C/C(=C\F)C7)nc5c3F)N3CCCC[C@H]3CO4)c12` [Example 52, 5-ethynyl-6-fluoro-4-[(8aS)-4-fluoro-2-{[(2Z,7aS)-2-(fluoromethylidene)tetrahydro-1H-pyrrolizin-7a(5H)-yl]methoxy}-8,8a,9,10,11,12-hexahydro-7-oxa-1,3,6,12a-tetraazabenzo[4,5]cyclohepta[1,2,3-de]naphthalen-5-yl]naphthalen-2-ol] are 7.7 nM, 2.26 nM, 2.22 nM, 9.2 nM and 1.75 nM.
On the same counts, the results for `C#Cc1c(F)ccc2cc(O)cc(-c3nc4c5c(nc(OC[C@@]67CCCN6C[C@H](F)C7)nc5c3F)N3[C@@H](COC[C@@H]3C)CO4)c12` [Example 59, 5-ethynyl-6-fluoro-4-[(8aS,12S)-4-fluoro-2-{[(2R,7aS)-2-fluorotetrahydro-1H-pyrrolizin-7a(5H)-yl]methoxy}-12-methyl-8a,9,11,12-tetrahydro-8H-7,10-dioxa-1,3,6,12a-tetraazabenzo[4,5]cyclohepta[1,2,3-de]naphthalen-5-yl]naphthalen-2-ol] are 70.6 nM, 2.66 nM, 3.08 nM, 77.2 nM and 12.4 nM.
Consider `C#Cc1c(F)ccc2cc(O)cc(-c3nc4c5c(nc(OC[C@@]67CCCN6C[C@H](F)C7)nc5c3F)N(Cc3ccccc3)CCC4)c12` [Example 112, 4-[13-benzyl-6-fluoro-3-[[(2R,8S)-2-fluoro-1,2,3,5,6,7-hexahydropyrrolizin-8-yl]methoxy]-2,4,8,13-tetrazatricyclo [7.4.1.05,14]tetradeca-1,3,5,7,9 (14)-pentaen-7-yl]-5-ethynyl-6-fluoro-naphthalen-2-ol], for which the half-maximal inhibitory concentration (IC50) with AGS (G12D) (72 h) is more than 3000 nM; on KRAS G12D, 321 nM; at KRAS G12V, 40.1 nM; in the assay with GP2D (KRAS G12D) (GP2d, 72 h), more than 3000 nM.
Take `CCc1c(F)ccc2cc(O)cc(-c3nc4c5c(nc(OC[C@@]67CCCN6C[C@H](F)C7)nc5c3F)N3CCC[C@](C)(O)[C@@H]3CO4)c12` [Example 114]: the IC50 with AGS (G12D) (72 h) was more than 3000 nM; against KRAS G12D, 929 nM; against KRAS G12V, 1200 nM; with GP2D (KRAS G12D) (GP2d, 72 h), more than 3000 nM.
As to `CC[C@H]1COc2nc(-c3cc(O)cc4ccc(F)c(F)c34)c(F)c3nc(OC[C@@]45CCCN4C[C@H](F)C5)nc(c23)N1C` [Example 115, 4-[(9S)-9-ethyl-4-fluoro-2-{[(2R,7aS)-2-fluorotetrahydro-1H-pyrrolizin-7a(5H)-yl]methoxy}-10-methyl-9,10-dihydro-8H-7-oxa-1,3,6,10-tetraazacyclohepta[1,2,3-de]naphthalen-5-yl]-5,6-difluoronaphthalen-2-ol], the half-maximal inhibitory concentration (IC50) in the assay with AGS (G12D) (72 h) came out at 352 nM; against KRAS G12D, 2.61 nM; against KRAS G12V it was 2.4 nM; with GP2D (KRAS G12D) (GP2d, 72 h), 106 nM.
In the same order, the values of `CC[C@H]1COc2nc(-c3cccc4sc(N)c(C#N)c34)c(F)c3nc(OC[C@@]45CCCN4C[C@H](F)C5)nc(c23)N1C` [Example 116, 2-amino-4-[(9S)-9-ethyl-4-fluoro-2-{[(2R,7aS)-2-fluorotetrahydro-1H-pyrrolizin-7a(5H)-yl]methoxy}-10-methyl-9,10-dihydro-8H-7-oxa-1,3,6,10-tetraazacyclohepta[1,2,3-de]naphthalen-5-yl]-1-benzothiophene-3-carbonitrile] are more than 3000 nM, 14.2 nM, 6.41 nM and 760 nM.
For the molecule `C#Cc1c(F)ccc2cc(O)cc(-c3nc4c5c(nc(OC[C@@]67CCCN6C[C@H](F)C7)nc5c3F)N(CC(F)(F)F)[C@@H](C)CO4)c12` [Example 133, 5-ethynyl-6-fluoro-4-((S)-4-fluoro-2-(((2R,7aS)-2-fluorotetrahydro-1H-pyrrolizin-7a(5H)-yl)methoxy)-9-methyl-10-(2,2,2-trifluoroethyl)-9,10-dihydro-8H-7-oxa-1,3,6,10-tetraazacyclohepta[de]naphthalen-5-yl)naphthalen-2-ol], the 50% inhibitory concentration (IC50) was 49.9 nM with AGS (G12D) (72 h); 25.8 nM in the assay with SW620 (KRAS G12V) (Homo sapiens, SW-620, 72 h); 21.3 nM in the assay on GP2D (KRAS G12D) (GP2d, 72 h).
For the molecule `CCc1c(F)ccc2cc(O)cc(-c3nc4c5c(nc(OC[C@@]67CCCN6C[C@H](F)C7)nc5c3F)N3CCC[C@@](C)(O)[C@H]3CO4)c12` [compound 3, (8aR,9R)-5-(8-ethyl-7-fluoro-3-hydroxynaphthalen-1-yl)-4-fluoro-2-{[(2R,7aS)-2-fluorotetrahydro-1H-pyrrolizin-7a(5H)-yl]methoxy}-9-methyl-8,8a,9,10,11,12-hexahydro-7-oxa-1,3,6,12a-tetraazabenzo[4,5]cyclohepta[1,2,3-de]naphthalen-9-ol], the IC50 worked out at 57.5 nM in the assay on AGS (G12D) (72 h); 1.66 nM on KRAS G12D; 1.85 nM against KRAS G12V; 15.5 nM in the assay with GP2D (KRAS G12D) (GP2d, 72 h).

The record behind these values is US20260008787A1, “FUSED RING KRAS INHIBITORS FOR TREATING DISEASE” (BLOSSOMHILL THERAPEUTICS, INC., priority 2022, published 2026).
